The subject of the test is ERK phosphorylation. The experiment in a line: Analysis of ERK phosphorylation (Alphascreen SureFire Phospho-ERK 1/2). The class given is cell-based, human and mouse. To be noted: cells treated for 1 h; human melanoma cells, human and mouse colon cancer cells; read-out: Minimum concentration (nM) required for ≧80% inhibition of pERK. Here is the method: This assay was carried out with human melanoma cells, human and mouse colon cancer cells. Cells were treated for 1 h with various concentrations of test compounds. ERK phosphorylation analysis was performed using the Alphascreen SureFire Phospho-ERK 1/2 Kit (Perkin Elmer), by following the manufacturer's instructions. % inhibition of ERK phosphorylation was determined as: 100−{(RFU test−RFU lysis buffer control)/(RFU vehicle treated control−RFU lysis buffer control)}×100. Percentage inhibition at concentrations of 0.01 nM, 0.03 nM, 0.1-0.9 nM, 1 nM to 3 nM, 4-100 nM, and >100 nM, for the stated examples is setworth here. The percentage inhibition at the above depicted concentrations for the compounds stated are given in the following groups.
For orientation: Alpha assays give light when donor and acceptor beads are brought close together.

In patent US9428499B2, “Heterocyclyl compounds as MEK inhibitors” (LUPIN LIMITED, priority 2012, dated 2016) one finds IC80 data, which are given here for ten molecules.

Regarding `Cc1c(=O)n(C)c(Nc2ccc(I)cc2F)c2c(=O)[nH]c(=O)n(-c3cccc(CCC(N)=O)c3)c12` [Compound 1, 3-(3-(5-((2-fluoro-4-iodophenyl)amino)-6,8-dimethyl-2,4,7-trioxo-3,4,6,7-tetrahydropyrido[4,3-d]pyrimidin-1(2H)-yl)phenyl)propanamide], the IC80 lay within 1 to 3 nM.
For `Cc1c(=O)n(C)c(Nc2ccc(I)cc2F)c2c(=O)[nH]c(=O)n(-c3cccc(C(=O)N4CCC4)c3)c12` [Compound 3, 1-(3-(azetidine-1-carbonyl)phenyl)-5-((2-fluoro-4-iodophenyl)amino)-6,8-dimethylpyrido[4,3-d]pyrimidine-2,4,7(1H,3H,6H)-trione], the IC80 lay in the range of 1 to 3 nM.
Then `Cc1c(=O)n(C)c(Nc2ccc(I)cc2F)c2c(=O)[nH]c(=O)n(-c3cccc(CC(=O)NC4CC4)c3)c12` [Compound 4, N-cyclopropyl-2-(3-(5-((2-fluoro-4-iodophenyl)amino)-6,8-dimethyl-2,4,7-trioxo-3,4,6,7-tetrahydropyrido[4,3-d]pyrimidin-1(2H)-yl)phenyl)acetamide], with 1 to 3 nM; and `Cc1c(=O)n(C)c(Nc2ccc(I)cc2F)c2c(=O)[nH]c(=O)n(-c3cccc(OCC(=O)NC4CC4)c3)c12` [Compound 6, N-cyclopropyl-2-(3-(5-((2-fluoro-4-iodophenyl)amino)-6,8-dimethyl-2,4,7-trioxo-3,4,6,7-tetrahydropyrido[4,3-d]pyrimidin-1(2H)-yl)phenoxy)acetamide], with 0.01 nM; and `Cc1c(=O)n(C)c(Nc2ccc(I)cc2F)c2c(=O)[nH]c(=O)n(-c3cccc(C(=O)N4CCOCC4)c3)c12` [Compound 7, 5-((2-fluoro-4-iodophenyl)amino)-6,8-dimethyl-1-(3-(morpholine-4-carbonyl)phenyl)pyrido[4,3-d]pyrimidine-2,4,7(1H,3H,6H)-trione], with 4 to 100 nM.
Then `Cc1c(=O)n(C)c(Nc2ccc(I)cc2F)c2c(=O)[nH]c(=O)n(-c3cccc(C(=O)N4CCS(=O)(=O)CC4)c3)c12` [Compound 8, 1-(3-(1,1-dioxidothiomorpholine-4-carbonyl)phenyl)-5-((2-fluoro-4-iodophenyl)amino)-6,8-dimethylpyrido[4,3-d]pyrimidine-2,4,7(1H,3H,6H)-trione], with 1 to 3 nM; and `Cc1c(=O)n(C)c(Nc2ccc(I)cc2F)c2c(=O)[nH]c(=O)n(-c3cccc(C(C)(C)C(N)=O)c3)c12` [Compound 9, 2-(3-(5-((2-fluoro-4-iodophenyl)amino)-6,8-dimethyl-2,4,7-trioxo-3,4,6,7-tetrahydropyrido[4,3-d]pyrimidin-1(2H)-yl)phenyl)-2-methylpropanamide], with 0.1 to 0.9 nM.
Then `Cc1c(=O)n(C)c(Nc2ccc(I)cc2F)c2c(=O)[nH]c(=O)n(-c3cccc(CC(=O)N(C)C)c3)c12` [Compound 10, 2-(3-(5-((2-fluoro-4-iodophenyl)amino)-6,8-dimethyl-2,4,7-trioxo-3,4,6,7-tetrahydropyrido[4,3-d]pyrimidin-1(2H)-yl)phenyl)-N,N-dimethylacetamide], with 0.1 to 0.9 nM; and `Cc1c(Nc2ccc(I)cc2F)c2c(=O)[nH]c(=O)n(-c3cccc(C(F)(F)C(N)=O)c3)c2n(C)c1=O` [Compound 11, 2,2-difluoro-2-(3-(5-((2-fluoro-4-iodophenyl)amino)-6,8-dimethyl-2,4,7-trioxo-3,4,7,8-tetrahydropyrido[2,3-d]pyrimidin-1(2H)-yl)phenyl)acetamide], with 0.1 to 0.9 nM; and `Cc1c(=O)n(C)c(Nc2ccc(I)cc2F)c2c(=O)[nH]c(=O)n(-c3cccc(C(=O)NC4(C(N)=O)CC4)c3)c12` [Compound 12, N-(1-carbamoylcyclopropyl)-3-(5-((2-fluoro-4-iodophenyl)amino)-6,8-dimethyl-2,4,7-trioxo-3,4,6,7-tetrahydropyrido[4,3-d]pyrimidin-1(2H)-yl)benzamide], with 4 to 100 nM.
